The source made the active and inactive calls.
How the values were obtained:
[1] = Luminescence Cell-Based Dose Retest to Confirm Inhibitors of Cancer Stem Cells. [Related pubchem assays (depositor defined):AID2717, AID2721]; format: functional; details: Homo sapiens
[2] = target: T1, Heat shock factor protein 1 (Mus musculus, UniProt P38532); test: decrease of HSF1-responsive luciferase luminescence – cell-based, NIH3T3, dose retest, confirmation (AID 2382); format: functional;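 further: NIH3T3 fibroblasts with HSF1-driven luciferase reporter stressed by proteasome inhibitor MG132; luminescence from HSF1-driven luciferase expression after 8 hours of MG132 stress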
T1 sequence (P38532 whole entry): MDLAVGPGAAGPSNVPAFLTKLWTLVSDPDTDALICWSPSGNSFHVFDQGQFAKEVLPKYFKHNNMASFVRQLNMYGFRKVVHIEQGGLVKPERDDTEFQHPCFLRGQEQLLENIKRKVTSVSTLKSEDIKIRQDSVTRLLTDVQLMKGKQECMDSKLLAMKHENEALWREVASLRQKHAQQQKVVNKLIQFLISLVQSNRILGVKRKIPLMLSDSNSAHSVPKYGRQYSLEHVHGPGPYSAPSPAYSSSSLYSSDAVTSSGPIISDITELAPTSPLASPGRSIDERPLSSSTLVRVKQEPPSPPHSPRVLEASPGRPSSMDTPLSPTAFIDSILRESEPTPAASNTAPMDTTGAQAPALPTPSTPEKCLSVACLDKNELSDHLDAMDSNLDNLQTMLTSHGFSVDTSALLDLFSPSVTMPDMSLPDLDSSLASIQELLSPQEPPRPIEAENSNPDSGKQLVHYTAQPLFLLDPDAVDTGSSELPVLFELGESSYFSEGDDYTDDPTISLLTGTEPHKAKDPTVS

Cytochrome P450 2D6 = Cytochrome P450 2D6 (Homo sapiens, UniProt P10635);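 further: CYP2D6 member of a cytochrome P450 panel assay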
Chain of Cytochrome P450 2D6 (P10635 whole entry): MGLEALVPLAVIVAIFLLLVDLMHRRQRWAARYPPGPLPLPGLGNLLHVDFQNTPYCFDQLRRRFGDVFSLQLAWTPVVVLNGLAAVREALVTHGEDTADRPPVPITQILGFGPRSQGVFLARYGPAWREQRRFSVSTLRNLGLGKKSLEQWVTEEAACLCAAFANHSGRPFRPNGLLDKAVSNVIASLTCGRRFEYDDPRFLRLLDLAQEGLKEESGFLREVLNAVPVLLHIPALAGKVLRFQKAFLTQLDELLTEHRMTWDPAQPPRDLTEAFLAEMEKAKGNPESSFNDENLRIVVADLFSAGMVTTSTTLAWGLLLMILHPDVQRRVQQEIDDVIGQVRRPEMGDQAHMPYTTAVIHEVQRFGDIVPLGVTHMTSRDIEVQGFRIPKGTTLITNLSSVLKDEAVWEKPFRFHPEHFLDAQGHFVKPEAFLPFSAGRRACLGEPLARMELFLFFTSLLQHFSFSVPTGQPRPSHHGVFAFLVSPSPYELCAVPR

Cytochrome P450 2C9 = Cytochrome P450 2C9 (Homo sapiens, UniProt P11712)
Chain of Cytochrome P450 2C9 (P11712 whole entry): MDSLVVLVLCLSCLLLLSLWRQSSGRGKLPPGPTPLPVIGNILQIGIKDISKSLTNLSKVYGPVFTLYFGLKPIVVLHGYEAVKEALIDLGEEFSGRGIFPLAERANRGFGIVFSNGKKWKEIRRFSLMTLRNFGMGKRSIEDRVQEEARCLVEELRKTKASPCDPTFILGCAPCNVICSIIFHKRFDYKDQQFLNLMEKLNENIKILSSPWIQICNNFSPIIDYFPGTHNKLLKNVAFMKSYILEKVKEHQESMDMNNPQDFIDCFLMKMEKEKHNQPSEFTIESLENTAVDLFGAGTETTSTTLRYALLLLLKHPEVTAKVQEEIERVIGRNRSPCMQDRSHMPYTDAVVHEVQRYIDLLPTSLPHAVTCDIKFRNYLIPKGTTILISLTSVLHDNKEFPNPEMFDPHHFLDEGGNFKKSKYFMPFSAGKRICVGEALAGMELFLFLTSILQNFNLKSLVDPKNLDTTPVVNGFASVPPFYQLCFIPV

Cytochrome P450 2C19 = Cytochrome P450 2C19 (Homo sapiens, UniProt P33261); test: Cytochrome panel assay with activity outcomes. Panel member name: p450-cyp2c19 Compounds with AC50 equal or less than 10 uM are considered active; format: functional
Chain of Cytochrome P450 2C19 (P33261 whole entry): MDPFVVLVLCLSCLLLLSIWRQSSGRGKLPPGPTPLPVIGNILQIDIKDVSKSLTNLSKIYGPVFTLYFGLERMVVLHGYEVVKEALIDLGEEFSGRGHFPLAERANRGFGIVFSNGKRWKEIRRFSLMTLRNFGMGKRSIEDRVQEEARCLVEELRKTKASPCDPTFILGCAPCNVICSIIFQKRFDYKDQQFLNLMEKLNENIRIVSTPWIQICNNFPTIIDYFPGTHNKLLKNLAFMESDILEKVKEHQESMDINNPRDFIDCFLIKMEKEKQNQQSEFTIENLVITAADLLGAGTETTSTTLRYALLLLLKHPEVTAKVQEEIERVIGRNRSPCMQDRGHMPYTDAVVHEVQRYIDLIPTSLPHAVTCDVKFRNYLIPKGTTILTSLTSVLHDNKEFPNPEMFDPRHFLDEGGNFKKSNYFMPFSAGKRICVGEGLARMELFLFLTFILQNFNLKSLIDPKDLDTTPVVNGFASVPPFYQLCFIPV

[3] = NIH3T3 cell viability loss – ATP luminescence, mouse fibroblasts, counter-screen, dose response (AID 2010); format: functional, cell-based;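 further: cells exposed to compound for about 90 hours before reading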
[4] = Trypanosoma cruzi growth suppression in host cells – NIH3T3 host cells, beta-gal luminescence, confirmation (AID 2044); format: functional, cell-based;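 further: intracellular parasites grown in NIH/3T3 mouse fibroblasts as host cells; luminescent beta-galactosidase reporter signal from transgenic T. cruzi replicating inside host cells; inhibitors lower the luminescence signal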
[5] = tested on: Streptococcus sp. 'group A'; test: Streptococcus pyogenes SK(-)GAS viability under kanamycin – luminescence, BacTiterGlo, confirmation, counter-screen for streptokinase expression inhibitor project, dose response (AID 1900); format: functional, organism-based
Streptococcus = test: GAS UMAA2166 growth inhibition – luminescence, BacTiterGlo, counter-screen for streptokinase expression inhibitor project, dose response (AID 1915); format: functional, organism-based;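 further: potency for reduction of bacterial viability or growth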

C[C@@]12CCC=C[C@H]1[C@H](c1ccc(F)c(/C=C/c3ccccc3)c1)N(Cc1ccccc1)C2=O
AC50 [1]: 2.84 µM (active)

CC(=O)c1ccc(NC(=O)C2CCN(S(=O)(=O)c3cccc4cccnc34)CC2)cc1
EC50 [2]: > 195 µM (not active)

Cc1ccc(NS(=O)(=O)c2cc3c4c(cccc4c2)C(=O)NC3=O)cc1C
AC50 [1]: 5.69 µM (active)

Nc1nnc(SCC(=O)OCC(=O)NC2CCCCC2)s1
AC50 [1]: > 195 µM (inactive)

COc1ccccc1CCn1c(=O)c(-c2cccc(F)c2)nc2cncnc21
AC50 (Cytochrome P450 2D6): 39.8 µM (inconclusive)

Nc1nc2n(c1C(=O)c1ccccc1)CCC2
EC50 [2]: 78 µM (active)

COc1cc(C(=O)N2CCSCC2)ccc1OC1CCN(C(C)=O)CC1
EC50 [2]: > 195 µM (not active)

Oc1cc(O)c2c(c1)O[C@@H](c1ccc(O)c(O)c1)[C@H](O[C@@]1(c3cc(O)c(O)c(O)c3)Oc3cc(O)cc(O)c3[C@H](O)[C@@H]1O)C2
AC50 (Cytochrome P450 2C9): 6.31 µM (inconclusive)
AC50 (Cytochrome P450 2C19; read-out: AC50): 3.98 µM (inconclusive)

CC1CC2=C(N=C(S)NC2c2cccc(F)c2)/C(=C/c2cccc(F)c2)C1 (stereo not given)
EC50 [3]: > 60 µM (inconclusive)
EC50 [4]: 1.83 µM (active)

Cc1noc(C)c1C(=O)N1CCC[C@@]2(CCN(c3ccccn3)C2)C1
AC50 (Cytochrome P450 2D6): 6.31 µM (inconclusive)

O=S(=O)(NCC(c1cccnc1)N1CCN(Cc2ccccc2)CC1)c1cc(F)ccc1F (stereo not given)
EC50 [3]: > 60 µM (not active)
EC50 [4]: 0.677 µM (active)

O=C(NNc1ccccc1Br)C(=O)n1ccc2ccccc21
AC50 [1]: 3.46 µM (active)

C[C@@H]1C[C@H](OC(=O)[C@@H](O)c2ccccc2)CC(C)(C)N1C
AC50 (Cytochrome P450 2D6): 15.8 µM (inconclusive)

CCOc1cc(CNCCCN2CCOCC2)ccc1OCC(=O)NC(C)(C)C
EC50 [3]: > 60 µM (not active)
EC50 [4]: 0.87 µM (active)

COc1cc(-c2ccc3c(=O)c4ccccc4n(C)c3c2)cc(OC)c1OC
AC50 [1]: 9.62 µM (active)

Oc1[nH]c2ccccc2c1N=Nc1ccc(C(F)(F)F)cn1
AC50 (Cytochrome P450 2C19): inconclusive

CC(C)C12CC[C@@]3(CC[C@H]4[C@@](C)(CCC[C@]4(C)C(=O)O)[C@@H]3C1)[C@@H](CN)C2
AC50 (Cytochrome P450 2C9): 1.26 µM (inconclusive)

Cc1ccnc(NS(=O)(=O)c2ccc(NC(=O)C3CCCNC3=O)cc2)n1 (stereo not given)
AC50 (Cytochrome P450 2C19): inconclusive

Cc1ccc(-c2csc(N/N=C/c3ccco3)n2)cc1
AC50 (Cytochrome P450 2C9): 20 µM (inconclusive)

COc1cccc2c1C(=N)c1c(O)c3c(c(O)c1C2=O)C[C@](O)(C(C)=O)C[C@@H]3O[C@H]1C[C@H](N)[C@@H](O)[C@H](C)O1
AC50 (Cytochrome P450 2D6): 3.16 µM (inconclusive)

CCc1ccc(NC(=O)C2C3CCC(O3)C2C(=O)O)cc1 (stereo not given)
EC50 [2]: 67 µM (active)

CN1CCN(NC(=O)c2cn(-c3ccccc3)nc2-c2cccc(Br)c2)CC1
EC50 [3]: 4.99 µM (active)
EC50 [4]: 2.81 µM (active)

CCOc1cc(/C=C\c2nc(O)nc(O)c2[N+](=O)[O-])ccc1OC(C)CC (stereo not given)
AC50 [1]: 8.11 µM (active)

O=C(Nc1ccccc1N1CCCC1)c1cccnc1Cl
EC50 [2]: > 195 µM (not active)

COc1ccccc1C(=O)Nc1ccnn1C1CCN(Cc2cnc(N(C)C)s2)CC1
EC50 [3]: > 60 µM (not active)
EC50 [4]: 0.852 µM (active)

COc1ccccc1CNc1nc(-c2cccc(C#N)c2)nc2ccccc12
AC50 (Cytochrome P450 2C9): 1 µM (inconclusive)

CCc1nc2c(c(SC)nn2-c2ccccc2)c(N)c1C(=O)OC
AC50 (Cytochrome P450 2C9): 1.12 µM (inconclusive)
AC50 (Cytochrome P450 2C19; read-out: AC50): 25.1 µM (inconclusive)

CCOc1ccc(-n2cc(-c3ccccc3)c3c(S)ncnc32)cc1
EC50 [5]: 6.95 µM (active)
EC50 (Streptococcus): 14.9 µM (active)

Cn1c(=O)n(Cc2ccc(F)cc2)c(=O)c2c1nc1n2CCCN1C1CCCCC1
AC50 [1]: 3.33 µM (active)

O=c1c2ccccc2nc(/C=C/c2ccccc2F)n1-c1ccccc1O
AC50 [1]: 2.4 µM (active)

CCOc1ccc(CN2CCN(Cc3cc4ccccc4[nH]3)CC2CCO)cc1 (stereo not given)
EC50 [3]: > 60 µM (not active)
EC50 [4]: 0.371 µM (active)

Cc1ccc(CCN2CC(C(=O)NC3CCCC3)CC2=O)cc1 (stereo not given)
AC50 (Cytochrome P450 2C19; read-out: AC50): 14.1 µM (inconclusive)

O[C@@H](c1cc([C@@]23C[C@H]4CC[C@@H]2C[C@H](C4)C3)nc2c(Cl)cc(Cl)cc12)[C@@H]1CCCCN1
AC50 (Cytochrome P450 2D6): 3.16 µM (inconclusive)
AC50 (Cytochrome P450 2C19; read-out: AC50): 0.794 µM (inconclusive)

CC(=O)c1ccc(-c2ccc([C@H]3[C@H]4C=CC[C@@H](C)[C@@H]4C(=O)N3Cc3ccccc3)c(F)c2)cc1
AC50 [1]: 5.57 µM (active)

CC(=O)OC[C@@H]1O[C@@H](O/N=C2/C[C@@H](O)[C@@H](O)[C@@H]3[C@@H]4C(=O)N(C[C@@H]5CCCO5)C(=O)[C@H]4CC[C@@H]23)[C@H](OC(C)=O)[C@H](OC(C)=O)[C@@H]1OC(C)=O
AC50 (Cytochrome P450 2D6): 3.98 µM (inconclusive)

CCn1nccc1C(=O)Nc1nc2ccccc2n1CCN1CCCCC1
AC50 (Cytochrome P450 2D6): 4.47 µM (inconclusive)

CC(C)c1c(CN(C)[C@@H](C)Cc2ccccc2)n(C)n(-c2ccccc2)c1=O [FAMPROFAZONE]
AC50 (Cytochrome P450 2D6): 10 µM (inconclusive)
AC50 (Cytochrome P450 2C19; read-out: AC50): 15.8 µM (inconclusive)

Clc1ccccc1CNCC1CCC(CNCc2ccccc2Cl)CC1 (stereo not given)
AC50 (Cytochrome P450 2C9): 1.26 µM (inconclusive)

CCCc1nnc(NC(=O)CCC(=O)NCc2ccccc2OC)s1
AC50 (Cytochrome P450 2C19; read-out: AC50): 11.2 µM (inconclusive)

COc1ccc(N2CCN(c3nc(Nc4ccc(C)c(F)c4)nc(N4CCCC4)n3)CC2)cc1
EC50 [3]: > 60 µM (not active)
EC50 [4]: 3.17 µM (active)

CCOC(=O)C(C(=O)NCc1ccc(C)cc1)c1ncc(C(F)(F)F)cc1Cl (stereo not given)
AC50 (Cytochrome P450 2C19; read-out: AC50): 11.2 µM (inconclusive)

COc1cccc(CC2(CO)CCCN(Cc3ccc(C)s3)C2)c1 (stereo not given)
EC50 [3]: > 30 µM (not active)
EC50 [4]: 0.635 µM (active)

CCCCCc1nnc(NC(=O)C(=O)OCC)s1
AC50 (Cytochrome P450 2C9): 28.2 µM (inconclusive)

Cc1[nH]n(-c2ccccc2)c(=O)c1/C=N/NC(=O)c1ccccc1F
EC50 [5]: 3.54 µM (active)
EC50 (Streptococcus): 6.72 µM (active)

COc1ccc(C2NCCc3c2[nH]c2ccccc32)cc1CN1CCc2cc(OC)c(OC)cc2C1C (stereo not given)
EC50 [3]: > 60 µM (not active)
EC50 [4]: 1.98 µM (active)

COc1ccccc1-c1cc(NCc2cccnc2)ncn1
AC50 (Cytochrome P450 2D6): 20 µM (inconclusive)

COc1ccc(/C(C)=N/NC(=O)c2ccc(CSc3cccc4cccnc34)cc2)cc1OC
AC50 (Cytochrome P450 2C9): 1.26 µM (inconclusive)

Cc1noc(C)c1C(=O)N1CCC2(CCN(Cc3cc(C(F)(F)F)cc(C(F)(F)F)c3)CC2)CC1
AC50 (Cytochrome P450 2D6): 39.8 µM (inconclusive)

C[C@@H](C(=O)Nc1ccc2ccccc2c1)[C@@H]1C[C@@]1(C)[C@@H](NC(=O)c1ccncc1Cl)c1ccccc1
AC50 (Cytochrome P450 2C9): 39.8 µM (inconclusive)

N=C(NOC(=O)COc1ccc2ccccc2c1Br)c1ccncc1
EC50 [3]: > 60 µM (not active)
EC50 [4]: 2.84 µM (active)

CCC(=O)Nc1ccc(C(=O)OCC(=O)c2ccc(C)c([N+](=O)[O-])c2)cc1
AC50 (Cytochrome P450 2D6): 35.5 µM (inconclusive)
AC50 (Cytochrome P450 2C19; read-out: AC50): 11.2 µM (inconclusive)

O=c1c(-c2cccs2)nc2cnc(N3CCNCC3)nc2n1-c1ccccc1
AC50 (Cytochrome P450 2C9): 20 µM (inconclusive)
AC50 (Cytochrome P450 2D6): 20 µM (inconclusive)

CCOc1ccc(CSC2=NCCN2)cc1Cl
EC50 [3]: > 60 µM (not active)
EC50 [4]: 1.1 µM (active)

CSc1[nH]c(-c2ccc(C)cc2)nc1S(=O)(=O)c1ccccc1
AC50 (Cytochrome P450 2C9): 11.2 µM (inconclusive)

CN(C)c1ncc2nc(CCc3ccccc3)c(=O)n(CCc3ccccc3)c2n1
AC50 (Cytochrome P450 2D6): 7.94 µM (inconclusive)

FC(F)(F)c1ccc(CNCCc2ccc3c(c2)OCO3)cc1
EC50 [3]: > 60 µM (not active)
EC50 [4]: 0.308 µM (active)

OCCNc1nc(NCCC2=CCCCC2)nc(N2CCOCC2)n1
AC50 (Cytochrome P450 2C19; read-out: AC50): 15.8 µM (inconclusive)

CC(NC(=O)CN=C(S)N(Cc1ccccc1)Cc1cccnc1)c1ccccc1 (stereo not given)
EC50 [3]: 10.8 µM (active)
EC50 [4]: 0.805 µM (active)

CCc1ccc(-c2cc(C(F)(F)F)n3nc(C(=O)Nc4c(C)nn(Cc5ccccc5C)c4C)cc3n2)s1
EC50 [3]: > 60 µM (inconclusive)
EC50 [4]: 2.21 µM (active)

O=C(CSc1nnc(-c2ccccn2)n1Cc1ccco1)Nc1ccc2c(c1)OCO2
AC50 (Cytochrome P450 2C9): 15.8 µM (inconclusive)

O=C(CSc1ccc(Cl)cc1)Nc1cccc(NC(=O)c2ccco2)c1
AC50 (Cytochrome P450 2C9): 5.01 µM (inconclusive)

COc1cc2nc(N3CCN(C(=O)OCc4ccccc4)[C@H](C(=O)NC(C)(C)C)C3)nc(N)c2cc1OC [L-765314]
AC50 (Cytochrome P450 2D6): 31.6 µM (inconclusive)

Cc1cccc(Cl)c1OCCCCn1ccnc1
EC50 [3]: > 60 µM (not active)
EC50 [4]: 1.62 µM (active)

Cn1c(Sc2ccc(-c3cccnc3)n2C)ccc1-c1cccnc1
AC50 (Cytochrome P450 2C9): 3.98 µM (inconclusive)
AC50 (Cytochrome P450 2D6): 3.16 µM (inconclusive)

Cc1cc(N)c2ccccc2[n+]1CCCCCCCCCCCCCC[n+]1c(C)cc(N)c2ccccc21
AC50 (Cytochrome P450 2C9): 39.8 µM (inconclusive)
AC50 (Cytochrome P450 2C19; read-out: AC50): 31.6 µM (inconclusive)
